Values of other authors in patent US10328101B2, “Inactivation of papillomavirus” (priority 2001, dated 2019).

System: bovine papillomavirus
Settings: iodine in the form of povidone-iodine; low concentrations (title of reference)

## povidone-iodine
  treating viruses including bovine papillomavirus: effective
